# PubChem BioAssay (NCI)
# “And” between values parts separate entries of the source, which are not always exact repeats. Equal entries are not always repeated.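 Values below derive from 48-hour exposures of cells grown in 96-well plates, with endpoints linearly interpolated between the two concentrations bracketing the appropriate inhibition level. Here, GI50 denotes the concentration required for 50% inhibition of growth. TGI marks complete inhibition of growth.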
# What was measured:
# Assay in all cases: inhibition of tumour cell growth, NCI panel, 48 h
# [1] = test system: A549 NSCLC
# [2] = test system: ACHN renal
# [3] = test system: CCRF-CEM leukemia
# [4] = test system: COLO 205 colon
# [5] = test system: DU-145 prostate
# [6] = test system: IGROV1 ovarian
# [7] = test system: MDA-MB-231 breast
# [8] = test system: NCI-H226 lung
# [9] = test system: SNB-75 CNS
# [10] = test system: U251 CNS
SMILES,TGI [1],TGI [2],TGI [3],TGI [4],TGI [5],TGI [6],TGI [7],TGI [8],TGI [9],TGI [10],GI50 [1],GI50 [2],GI50 [3],GI50 [4],GI50 [5],GI50 [6],GI50 [7],GI50 [8],GI50 [9],GI50 [10]
CCOC(=O)c1cc2ncccc2c2ccccc12,> 100 µM,> 100 µM,> 100 µM,> 100 µM,> 100 µM,> 100 µM,> 100 µM,> 100 µM,> 100 µM,> 100 µM,,,,,,,,,,
COC(=O)C#Cc1ccc([N+](=O)[O-])cc1,7.44 µM,2.9 µM,2.27 µM,3.41 µM,3.57 µM,3.92 µM,4.08 µM,5.72 µM,7.34 µM,3.86 µM,,,,,,,,,,
Cn1cnc2c(NCc3ccccc3)nc(NCCO)nc21,> 458 µM,> 468 µM,98.2 µM and 353 µM,69.7 µM and 282 µM,> 500 µM,334 µM,479 µM,> 93.2 µM and 183 µM,70.8 µM and 150 µM,> 500 µM,105 µM,92.7 µM,143 µM,82.2 µM,125 µM,67.9 µM,116 µM,17.5 µM,64.7 µM,133 µM
C[C@]12CCC(=O)C=C1CC[C@@H]1[C@@H]2CC[C@]2(C)C(=O)/C(=C/c3cccc(OCCN4CCOCC4)c3)C[C@@H]12,89.5 µM,> 100 µM,28.6 µM,25.5 µM,51.5 µM,95.9 µM,42.3 µM,> 100 µM,31.9 µM,24.9 µM,7.17 µM,18.7 µM,4.49 µM,5.21 µM,17.9 µM,23.5 µM,11.6 µM,14.2 µM,12 µM,8.5 µM
Cc1ccc(S(=O)(=O)n2cc(C(=O)C(=O)Nc3ccncc3)c3ccccc32)cc1,> 100 µM,> 100 µM,> 100 µM,48.1 µM,> 100 µM,> 100 µM,> 100 µM,> 100 µM,16.3 µM,> 56.1 µM,16.5 µM,7.82 µM,4.53 µM,18.7 µM,3.34 µM,5.74 µM,5.92 µM,8.6 µM,1.72 µM,1.4 µM
COC(=O)Nc1nc2ccc(Oc3ccc(NC(=O)Nc4cccc(Cl)c4)cc3)cc2[nH]1,8.87 µM,> 18.6 µM,> 15 µM,3.07 µM,8.44 µM,9.79 µM,19.3 µM,24.3 µM,8.36 µM,5.68 µM,2.02 µM,2.23 µM,0.838 µM,0.916 µM,1.58 µM,2.86 µM,3.31 µM,2.46 µM,0.689 µM,1.25 µM
[N-]=[N+]=CC(=O)OCC(N)C(=O)O (configuration not stated),2.86 µM,> 100 µM,> 100 µM,> 100 µM,> 100 µM,> 100 µM,> 100 µM,> 100 µM,> 100 µM,> 100 µM,0.711 µM,1.7 µM,0.623 µM,0.778 µM,0.952 µM,5.47 µM,0.763 µM,3.53 µM,2.68 µM,0.778 µM
CC/C(=C(\CC)c1ccc(OCCN(CC)CC)cc1)c1ccc(OCCN(CC)CC)cc1,15.5 µM,18.7 µM,25 µM,3.07 µM,19.2 µM,22.1 µM,5.82 µM,13.7 µM,11 µM,8.99 µM,3.81 µM,3.99 µM,2.51 µM,1.47 µM,6.05 µM,3.3 µM,1.76 µM,3.87 µM,2.83 µM,1.87 µM
O=C(O)c1cccc(CC(Br)C(=O)O)c1 (configuration not stated),> 100 µM,> 100 µM,> 100 µM,> 100 µM,> 100 µM,> 100 µM,> 100 µM,> 100 µM,> 100 µM,> 100 µM,,,,,,,,,,
Nc1nccc(Nc2ccc(S(N)(=O)=O)cc2)n1,> 100 µM,> 100 µM,> 100 µM,> 100 µM,> 100 µM,> 100 µM,> 100 µM,> 100 µM,> 100 µM,> 100 µM,,,,,,,,,,
Cc1cccc(N=C2c3cc([N+](=O)[O-])ccc3-c3c2cc([N+](=O)[O-])cc3[N+](=O)[O-])c1,32.9 µM,11.5 µM,> 100 µM,17.1 µM,11 µM,> 100 µM,5 µM,22.2 µM,42.4 µM,7.41 µM,12.3 µM,3.36 µM,3.87 µM,3.34 µM,3.24 µM,5.89 µM,2.43 µM,5.08 µM,4.59 µM,2.57 µM
CN(CCC(=O)O)S(=O)(=O)c1ccccc1,> 100 µM,> 100 µM,> 100 µM,> 100 µM,> 100 µM,> 100 µM,> 100 µM,> 100 µM,> 100 µM,> 100 µM,,,,,,,,,,
Cc1ccc(NC(=O)c2ccnc(N3CCCC3)c2)cc1-c1ccc(C(=O)NCC2CC2)cc1,> 25 µM,> 25 µM,> 25 µM,> 25 µM,> 25 µM,> 25 µM,> 25 µM,> 25 µM,> 25 µM,> 25 µM,> 25 µM,> 25 µM,> 25 µM,> 25 µM,> 25 µM,> 25 µM,10 µM,> 25 µM,> 21.7 µM,> 25 µM
CC(=O)OCC1OC(S[As](C)C)C(OC(C)=O)C1OC(C)=O (configuration not stated),13.6 µM,0.831 µM,1.34 µM,2.66 µM,0.836 µM,4.06 µM,2.34 µM,6.27 µM,1.99 µM,2.72 µM,1.94 µM,0.215 µM,0.19 µM,0.176 µM,0.217 µM,0.732 µM,0.404 µM,1.63 µM,0.511 µM,0.546 µM
CC(C)(O)[C@H]1[C@@H]2OC(=O)[C@H]1[C@]1(O)C[C@H]3OC34C(=O)O[C@H]2[C@@]41C (some centres not stated) (tested in a mixture with another compound),> 100 µM,> 100 µM,> 100 µM,> 100 µM,> 100 µM,> 100 µM,> 100 µM,> 100 µM,> 100 µM,> 100 µM,,,,,,,,,,
O=C1C=CC2(C=C1)CCN=c1c(O)c3c(c(O)c12)=NC=N3,39.2 µM and > 100 µM,25.7 µM and > 100 µM,> 100 µM,36.7 µM and > 100 µM,28 µM and > 100 µM,31 µM,31.8 µM and > 100 µM,38.4 µM and > 100 µM,35.2 µM and > 100 µM,24.1 µM and > 100 µM,17.9 µM and > 100 µM,12.6 µM and > 100 µM,,21.2 µM and > 100 µM,14.7 µM and > 100 µM,,14.4 µM and > 100 µM,19 µM and > 100 µM,17.8 µM and > 100 µM,10.6 µM and > 100 µM
COc1cccc2c1c1nc3cc(C)c(C)cc3nc1n2CCN(C)C,12 µM,10.3 µM,7.3 µM,3.31 µM,12.1 µM,10.7 µM,9.52 µM,6.45 µM,5.56 µM,11.7 µM,1.99 µM,0.433 µM,1.81 µM,0.767 µM,3.01 µM,1.76 µM,1.87 µM,1.63 µM,1.1 µM,2.21 µM
CC1(C)C2CCC13C(=O)C1OC3(C2)C2C(=O)c3c(O)ccc(O)c3C(=O)C12 (configuration not stated),> 100 µM,> 100 µM,> 46.9 µM,> 61.5 µM,96.5 µM,> 100 µM,> 70.3 µM,> 100 µM,> 69.3 µM,96.9 µM,46.6 µM,41 µM,4.45 µM,25.9 µM,32.2 µM,23.8 µM,44.2 µM,> 79 µM,> 44.4 µM,44.4 µM
Clc1ccc(CO/N=C(\Cn2ccnc2)c2ccc(Cl)cc2Cl)c(Cl)c1,3.32 µM,3.17 µM,4.62 µM,3.29 µM,3.66 µM,3.92 µM,2.75 µM,3.01 µM,3.22 µM,2.94 µM,1.55 µM,1.76 µM,1.87 µM,1.86 µM,1.96 µM,1.92 µM,1.32 µM,1.42 µM,1.65 µM,1.51 µM
O=C1/C(=C/C(Cl)=C/c2ccccc2)SC(=S)N1CCc1ccc(O)cc1,> 100 µM,3.6 µM,> 100 µM,7.69 µM,3.28 µM,4.93 µM,34.3 µM,7.16 µM,5.62 µM,2.66 µM,2.85 µM,1.67 µM,0.441 µM,2.27 µM,1.6 µM,2.02 µM,3.82 µM,2.17 µM,1.31 µM,1.23 µM
CCNc1nc(N2CC(=O)Nc3cc(OC)ccc32)c2ccccc2n1,> 100 µM,> 100 µM,> 100 µM,0.00207 µM,12.1 µM,14.1 µM,> 100 µM,> 100 µM,> 100 µM,> 100 µM,0.000737 µM,0.00139 µM,0.000404 µM,0.00035 µM,0.000435 µM,0.00184 µM,0.000553 µM,,0.000433 µM,0.000437 µM
